The source of these data is PMC4483166, “Structural Basis of Specific Recognition of Non-Reducing Terminal N-Acetylglucosamine by an Agrocybe aegerita Lectin” (PLoS ONE, 2015).

Read-outs that look alike come from different tables or passages of the source.

The target of assay [1] is T1, Agrocybe aegerita lectin 2 (AAL2) (Cyclocybe aegerita, UniProt H6CS64).
T1 construct: gene aal-2; recombinant AAL2 without any tag, expressed in E. coli BL21 (DE3); 407 amino acid residues
T1 sequence (H6CS64 1-407): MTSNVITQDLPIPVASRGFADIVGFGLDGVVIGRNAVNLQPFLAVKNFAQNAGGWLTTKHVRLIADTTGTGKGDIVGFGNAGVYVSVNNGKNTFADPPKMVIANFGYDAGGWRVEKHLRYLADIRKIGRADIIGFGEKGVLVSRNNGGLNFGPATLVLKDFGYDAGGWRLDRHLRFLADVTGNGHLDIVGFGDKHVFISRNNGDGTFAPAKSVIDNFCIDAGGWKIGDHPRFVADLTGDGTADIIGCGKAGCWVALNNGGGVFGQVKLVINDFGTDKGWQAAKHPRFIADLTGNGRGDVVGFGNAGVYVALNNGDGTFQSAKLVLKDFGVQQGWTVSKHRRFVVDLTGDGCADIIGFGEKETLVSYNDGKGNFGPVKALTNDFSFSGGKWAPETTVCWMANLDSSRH
Kind of assay: crystal structure of the complex ([…] Å) and SPR steady-state affinity. The assay is classed as binding.

For assay [2], the target named is T1, Agrocybe aegerita lectin 2 (AAL2). The assay is described as above. The class given is binding. The source holds these as a separate data set.

One may read the Kd as a measure of binding affinity in units of concentration. `CC(=O)N[C@H]1[C@H](O[C@H]2[C@@H](O)[C@@H](CO)O[C@@H](O[C@H]3[C@H](O)[C@@H](NC(C)=O)C(O)O[C@@H]3CO)[C@@H]2O)O[C@H](CO)[C@@H](O)[C@@H]1O` (some centres unmarked) [GlcNAcβ1-3Galβ1-4GlcNAc] displayed a Kd in assay [1] of 41.7 µM.

`CC(=O)N[C@@H]1[C@@H](O)[C@H](O)[C@@H](CO)O[C@H]1O` [GlcNAc] displayed a Kd in assay [2] of 28.3 µM.
